Source: patent US10729710B2, “Catecholamine prodrugs for use in the treatment of Parkinson's disease” (H. Lundbeck A/S, priority 2017, dated 2020)
Where a name gives a salt, the structure may show the parent alone.

Columns and labels:
human D1 receptor = human D1 receptor (Homo sapiens (Human), UniProt P21728); assay: Dopamine D1 receptor agonism, HTRF cAMP assay; format: cell-based; settings: for Emax: normalized to 30 uM dopamine = 100%
Protocol: Dopamine D1 receptor agonism was measured using a HTRF cAMP from CisBio using the protocol developed by HD Biosciences (China). Briefly, the assay is a homogeneous time resolved-fluorescence resonance energy transfer (HTRF) assay that measures production of cAMP by cells in a competitive immunoassay between native cAMP produced by cells and cAMP-labeled with XL-665. A cryptate-labeled anti-cAMP antibody visualizes the tracer. The assay was performed in accordance with instructions from manufacturer.
Test compounds were added to wells of microplates (384 format). HEK-293 cells expressing the human D1 receptor were plated at 1000 cells/well and incubated 30 min at room temperature. cAMP-d2 tracer was added to wells and followed by addition of Anti-cAMP antibody-cryptate preparation and incubated for 1 h at room temperature in dark. HTRF cAMP was measured by excitation of the donor with 337 nm laser (the “TRF light unit”) and subsequent (delay time 100 microseconds) measurement of cryptate and d2 emission at 615 nm and 665 nm over a time window of 200 microseconds with a 2000 microseconds time window between repeats/100 flashes). HRTF measurements were performed on an Envision microplate reader (PerkinElmer). The HTRF signal was calculated as the emission-ratio at 665 nm over 615 nm. The HTRF ratio readout for test compounds was normalized to 0% and 100% stimulation using control wells with DMSO-solvent or 30 uM dopamine. Test compound potency (EC50) was estimated by nonlinear regression using the sigmoidal dose-response (variable slope) using Xlfit 4 (IDBS, Guildford, Surrey, UK, model 205). y=(A+((B−A)/(1+((C/x)^D)))) where y is the normalized HTRF ratio measurement for a given concentration of test compound, x is the concentration of test compound, A is the estimated efficacy at infinite compound dilution, and B is the maximal efficacy. C is the EC50 value and D is the Hill slope coefficient. EC50 estimates were obtained from an independent experiment and the logarithmic average was calculated. Dopamine D2 Receptor Agonism

hepatocytes from rat = assay: Conversion to compound (I) in rat hepatocytes; format: in vitro ADME; settings: 1 μg/mL, 37° C., 0.25-60 minutes, FIG. 7a
In short: (§1)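 Hepatocyte suspensions (1×10^6 viable cells/mL) were incubated in duplicate with test item at 37° C., 0.1% DMSO final. Samples taken at 0.25, 5, 15, 30 and 60 min were stabilised with ice-cold ascorbic acid, saccharic acid 1.4-lactone/citric acid and formic acid. Formed (I) was quantified by LC-MS/MS (MRM) against analytical standards.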

human D2 receptor = human D2 receptor (Homo sapiens (Human), UniProt P14416); assay: Dopamine D2 receptor agonism, calcium mobilization assay; format: cell-based; settings: for Emax: normalized to 1 μM dopamine = 100%
Protocol: Dopamine D2 receptor agonism was measured using a calcium mobilization assay protocol developed by HD Biosciences (China). Briefly, HEK293/G15 cells expressing human D2 receptor were plated at a density of 15000 cells/well in clear-bottomed, Matrigel-coated 384-well plates and grown for 24 hrs at 37° C. in the presence of 5% CO2. The cells were incubated with calcium-sensitive fluorescent dye, Fluo8, for 60-90 minutes at 37° C. in the dark. Test compounds were prepared at 3-fold concentrated solution in 1×HBSS buffer with Ca^2+ and Mg^2+. Calcium Flux signal was immediately recorded after compounds were added from compound plate to cell plate at FLIPR (Molecular Devices). The fluorescence data were normalized to yield responses for no stimulation (buffer) and full stimulation (1 μM of dopamine) of 0% and 100% stimulation, respectively. Test compound potency (EC50) was estimated by nonlinear regression using the sigmoidal dose-response (variable slope) using Xlfit 4 (IDBS, Guildford, Surrey, UK, model 205). y=(A+((B−A)/(1+((C/x)^D)))) where y is the normalized ratio measurement for a given concentration of test compound, x is the concentration of test compound, A is the estimated efficacy at infinite compound dilution, and B is the maximal efficacy. C is the EC50 value and D is the Hill slope coefficient. EC50 estimates were obtained from independent experiment and the logarithmic average was calculated.

[1] = Conversion to compound (I) in fresh human blood; format: in vitro ADME; settings: fresh blood 37° C., 1 μg/mL, 0-60 minutes, FIG. 8b
Protocol: Conversion of (Id-ia), (Id-ib), (Id-iia) and (Id-iib) in human blood (average of 3 donors) and rat blood (average of 45 donors) to (I) was shown in fresh blood at 37° C. spiked with 1 μg/mL of (Id-ia), (Id-ib), (Id-iia) and (Id-iib) separately, (I) was measured at 0, 5, 15, 30 and 60 minutes in isolated plasma. Analysis method and Instrumentation as described in Examples 4 and 5 below in the section “Instrumentation used for analysis of compound (I) from dosing of compounds (Ic), (Id-ia), (Id-ib), (Id-iia), (Id-iib), (Id-iab) and (Id-iiab).”

hepatocytes from human = assay: Conversion to compound (I) in human hepatocytes; format: in vitro ADME; settings: 1 μg/mL, 37° C., 0.25-60 minutes, FIG. 7b
In short: as §1

Chain of human D1 receptor (P21728 whole entry): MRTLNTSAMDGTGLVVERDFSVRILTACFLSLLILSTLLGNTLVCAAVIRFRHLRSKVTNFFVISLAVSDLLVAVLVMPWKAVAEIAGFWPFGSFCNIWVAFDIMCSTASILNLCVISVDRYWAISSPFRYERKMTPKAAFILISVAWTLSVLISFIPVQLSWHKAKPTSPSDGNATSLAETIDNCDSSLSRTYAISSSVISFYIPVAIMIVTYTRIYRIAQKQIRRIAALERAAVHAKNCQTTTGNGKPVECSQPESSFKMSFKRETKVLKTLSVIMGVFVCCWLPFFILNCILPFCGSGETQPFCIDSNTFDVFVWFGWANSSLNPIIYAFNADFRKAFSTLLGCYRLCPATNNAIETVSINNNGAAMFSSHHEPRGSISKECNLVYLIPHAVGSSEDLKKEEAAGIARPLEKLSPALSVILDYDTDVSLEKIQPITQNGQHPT
Chain of human D2 receptor (P14416 whole entry): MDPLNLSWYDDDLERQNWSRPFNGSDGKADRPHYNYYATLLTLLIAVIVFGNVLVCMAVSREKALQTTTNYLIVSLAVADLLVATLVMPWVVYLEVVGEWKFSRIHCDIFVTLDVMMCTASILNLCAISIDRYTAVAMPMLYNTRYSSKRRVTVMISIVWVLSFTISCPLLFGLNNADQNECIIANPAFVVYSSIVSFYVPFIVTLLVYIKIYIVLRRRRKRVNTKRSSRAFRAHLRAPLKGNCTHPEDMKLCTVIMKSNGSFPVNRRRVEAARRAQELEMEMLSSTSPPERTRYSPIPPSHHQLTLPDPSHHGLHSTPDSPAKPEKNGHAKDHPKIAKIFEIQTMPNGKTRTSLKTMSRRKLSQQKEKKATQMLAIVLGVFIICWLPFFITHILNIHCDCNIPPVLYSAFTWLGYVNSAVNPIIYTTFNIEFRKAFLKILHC

| SMILES | in vitro dopaminergic activity (in words) (human D1 receptor; D1 and D2, example 2) | Emax (human D1 receptor) | conversion to compound (I) in rat hepatocytes (hepatocytes from rat) | Emax (human D2 receptor) | conversion to compound (I) in human blood [1] | conversion to compound (I) in human hepatocytes (hepatocytes from human) | EC50 (human D1 receptor; HEK-293 cells expressing human D1 receptor, cAMP) | EC50 (human D2 receptor; HEK293/G15 cells expressing human D2 receptor, calcium flux) |
| --- | --- | --- | --- | --- | --- | --- | --- | --- |
| CCCN1CCC[C@@H]2Cc3c(ccc(O)c3O[C@@H]3O[C@H](C(=O)O)[C@@H](O)[C@H](O)[C@H]3O)C[C@H]21 [(Id-ia), (2S,3S,4S,5R,6S)-3,4,5-trihydroxy-6-(((4aR,10aR)-7-hydroxy-1-propyl-1,2,3,4,4a,5,10,10a-octahydrobenzo[g]quinolin-6-yl)oxy)tetrahydro-2H-pyran-2-carboxylic acid] | no in vitro dopaminergic activity | 98% | time dependent conversion to compound (I) | 92% | time dependent conversion to compound (I) | time dependent conversion to compound (I) |  |  |
| CCCN1CCC[C@@H]2Cc3c(ccc(O)c3OS(=O)(=O)O)C[C@H]21 [(Id-iia), (4aR,10aR)-7-hydroxy-1-propyl-1,2,3,4,4a,5,10,10a-octahydrobenzo[g]quinolin-6-yl hydrogen sulfate] |  | 49% | time dependent conversion to compound (I) | 48% | time dependent conversion to compound (I) | time dependent conversion to compound (I) | > 30 µM | > 30 µM |
